In assay [1] the test system is RNase mixture (RNase A, RNase 1, RNase T1). The experiment in a line: Non-isotopic RNase inactivation assay (mouse total RNA, agarose gel). In kind it is biochemical, human, E. coli and a fungus. An excerpt: The inventors routinely perform assays on RNA designed to assess RNase activity in a sample. Two different assays are typically used for the detection of ribonuclease activity, non-isotopic and isotopic. […] In both assays, the inactivation process is typically performed on a mixture of three different ribonucleases: RNase A, RNase 1, and RNase T1. Each ribonuclease is purified from a different species: […], E. coli and a fungus, respectively. The three RNases are very different from each other in their origin, substrate specificity and protein sequence. In this way, the inactivation process can test three completely different but well characterized ribonucleases. The standard stock RNase mixture employed in the following examples is prepared by combining 1 μl RNase 1 (100 U/μl; Ambion), 1 μl RNase cocktail (RNase A, 0.5 U/μl; RNase T1, 20 U/μl, Ambion) and 98 μl water. The non-isotopic assay uses total RNA isolated from mouse as the substrate for the RNase mixture. […] A quantity of 4 μg of total RNA isolated from mouse liver or brain was dissolved in an aqueous solution, usually water or 1 mM sodium citrate (pH 6.6). The treated ribonuclease sample was added to the total RNA and then incubated at 37° C. for 1 or 16 hours, depending on the sensitivity desired for the assay. After incubation, the RNA was fractionated in a formaldehyde 1% agarose gel. The RNA was detected by staining with ethidium bromide and then illuminating the gel with ultraviolet light. The RNA fluoresces in the gel. Untreated total RNA was also fractionated as a control with the test samples for comparative purposes. […] Intact total RNA has two major bands produced by the 28S and 18S ribosomal RNA. […] The RNase cocktail was made to various concentrations in different buffers in different DTT concentrations and incubated at 37° C. or 60° C. for 20 minutes. Total mouse RNA was added to the treated RNase mixture and incubated at 37° C. for one hour, fractionated in a formaldehyde denaturing 1% agarose gel and the RNA visualized by ethidium bromide staining and UV fluorescence.

Assay [2] deals with T1, MMLV reverse transcriptase (Moloney murine leukemia virus, UniProt P03355).
T1 construct: purchased Ambion, Inc
Nature of the assay: Reverse transcription reaction (RETROscript kit), dCTP[α-32P] incorporation. In kind it is biochemical. The note with it: 20 mM reducing reagent. The method, then:
(§1) FIG. 2. […] Reverse transcriptions were performed using the RETROscript™ kit (Ambion, Inc.). Mouse total RNA in DEPC-treated water was reverse transcribed with either MMLV or AMV reverse transcriptase in the presence or absence of 20 mM DTT. dCTP[α^32P] was included in the reactions to measure the efficiency of reverse transcription. Following incubation at 42° C. for 1 h, 5 μl of each reaction was subjected to TCA precipitation to measure the amount of dCTP[α^32P] incorporated into cDNA by reverse transcription.
(§2) The reverse transcription reactions were performed using the RETROscript™ kit (Ambion, Inc.). The following were assembled with or without 20 mM of the reducing reagents in a final volume of 19 μl: dNTPs (0.5 mM each), oligo dT (5 μM), 0.4 μl dCTP[α-^32p] (3000 Ci/mmol), 10 mM Tris-HCl (pH 8.3): 50 mM KCl: 1.5 mM MgCl2, mouse brain total RNA (4 μg). The reaction mixtures were incubated at 65° C. for 10 minutes. 1 μl (100 units) of AMV or MMLV reverse transcriptase were added and then the reactions were incubated at 42° C. for 1 hour. Reverse transcription by either enzyme was not inhibited by DTT (FIG. 2) or by DTE or β-mercaptoethanol.

The test system of assay [3] is AMV reverse transcriptase. The assay is described as above. In kind it is biochemical. The note with it: 20 mM reducing reagent. As for the experimental part:
as §1, §2

In the next assay the target is DNase I (Bos taurus, UniProt P00639). Nature of the assay: DNase I activity after reducing/heat treatment, plasmid DNA degradation. In kind it is biochemical. The note with it: 20 mM reducing reagent in water; DNase I 0.4 units/μl; 60° C. for 20 minutes. As for the experimental part: DNase I is commonly used to degrade contaminating DNA in RNA preparations. To test whether the inactivation method affected DNase I activity, DNase I (final concentration of 0.4 units/μl) was added to water containing 20 mM DTT, DTE or β-mercaptoethanol. The mixture was incubated at 60° C. for 20 minutes. After the heat treatment, the DNase I activity was tested by incubating the treated DNase I with plasmid DNA (0.2 μg/μl ) at 37° C. for one hour followed by electrophoresis in a 1% agarose gel.
Sequence of DNase I (P00639 23-282): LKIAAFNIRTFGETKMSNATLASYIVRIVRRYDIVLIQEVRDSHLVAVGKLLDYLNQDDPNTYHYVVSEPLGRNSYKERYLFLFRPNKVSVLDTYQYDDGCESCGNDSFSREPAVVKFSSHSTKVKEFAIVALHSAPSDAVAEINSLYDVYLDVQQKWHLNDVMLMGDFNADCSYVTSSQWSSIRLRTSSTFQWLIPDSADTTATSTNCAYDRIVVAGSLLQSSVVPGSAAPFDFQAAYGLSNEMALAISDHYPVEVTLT

In a further assay the target is T2, T3 RNA polymerase (Enterobacteria phage T3, UniProt P07659).
T2 construct: purchased Ambion, Inc
T2 sequence (P07659 whole entry): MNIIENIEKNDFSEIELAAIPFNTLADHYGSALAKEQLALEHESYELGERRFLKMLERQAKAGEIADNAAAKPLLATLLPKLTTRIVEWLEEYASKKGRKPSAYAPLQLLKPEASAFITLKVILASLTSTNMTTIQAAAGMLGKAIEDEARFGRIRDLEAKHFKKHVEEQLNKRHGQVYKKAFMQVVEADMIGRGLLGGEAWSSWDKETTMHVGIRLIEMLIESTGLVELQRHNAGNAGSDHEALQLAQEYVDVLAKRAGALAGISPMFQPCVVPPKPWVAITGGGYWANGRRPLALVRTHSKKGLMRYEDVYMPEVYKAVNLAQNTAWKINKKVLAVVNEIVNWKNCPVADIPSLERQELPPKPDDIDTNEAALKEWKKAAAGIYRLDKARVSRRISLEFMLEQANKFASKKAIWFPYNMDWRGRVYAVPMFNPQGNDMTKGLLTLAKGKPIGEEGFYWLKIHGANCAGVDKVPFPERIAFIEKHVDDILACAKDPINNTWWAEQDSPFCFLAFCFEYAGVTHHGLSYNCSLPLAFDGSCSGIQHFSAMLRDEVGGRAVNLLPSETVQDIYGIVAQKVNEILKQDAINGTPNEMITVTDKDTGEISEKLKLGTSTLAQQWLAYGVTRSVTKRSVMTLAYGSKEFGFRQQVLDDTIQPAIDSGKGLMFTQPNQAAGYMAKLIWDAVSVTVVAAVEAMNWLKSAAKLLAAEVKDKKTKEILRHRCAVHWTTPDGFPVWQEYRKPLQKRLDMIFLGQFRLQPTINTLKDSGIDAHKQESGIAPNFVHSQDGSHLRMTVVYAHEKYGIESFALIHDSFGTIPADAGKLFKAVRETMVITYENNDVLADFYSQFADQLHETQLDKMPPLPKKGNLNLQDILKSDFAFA
Nature of the assay: In vitro transcription reaction (MAXIscript kit), UTP[α-32P] incorporation. In kind it is biochemical. To be noted: 20 mM reducing reagent. As for the experimental part:
(§3) FIG. 3. […] Transcriptions were performed with T7, T3 and SP6 RNA polymerase in the presence and absence of 20 mM DTT. For each RNA polymerase reaction, pTRI-Xef DNA was the template and UTP[α^32P] was included to measure the efficiency of transcription. Duplicates were performed for each reaction. TCA precipitations were performed on each transcription reaction to measure the percent of the UTP[α^32P] incorporated into RNA.
(§4) The transcription reactions were based on the MAXIscript™ transcription kit (Ambion, Inc.). The following were assembled with or without 20 mM reducing reagent in a final volume of 18 μl: NTPs (0.5 mM each), 1 μg linearized DNA template, 2 μl 10 × transcription buffer, and 0.2 μl UTP [α-^32P] (800 Ci/mmol). The reaction mixtures were incubated 60° C. for 10 minutes and then 2 μl of the either SP6, T7 or T3 RNA polymerase (10 units/μl) were added to the reactions, incubated 30° C. for 60 minutes and then TCA precipitated to assess the incorporation of the radioactive label.

The next assay addresses T3, SP6 RNA polymerase (Enterobacteria phage SP6, UniProt P06221).
T3 construct: purchased Ambion, Inc
T3 sequence (P06221 1-874): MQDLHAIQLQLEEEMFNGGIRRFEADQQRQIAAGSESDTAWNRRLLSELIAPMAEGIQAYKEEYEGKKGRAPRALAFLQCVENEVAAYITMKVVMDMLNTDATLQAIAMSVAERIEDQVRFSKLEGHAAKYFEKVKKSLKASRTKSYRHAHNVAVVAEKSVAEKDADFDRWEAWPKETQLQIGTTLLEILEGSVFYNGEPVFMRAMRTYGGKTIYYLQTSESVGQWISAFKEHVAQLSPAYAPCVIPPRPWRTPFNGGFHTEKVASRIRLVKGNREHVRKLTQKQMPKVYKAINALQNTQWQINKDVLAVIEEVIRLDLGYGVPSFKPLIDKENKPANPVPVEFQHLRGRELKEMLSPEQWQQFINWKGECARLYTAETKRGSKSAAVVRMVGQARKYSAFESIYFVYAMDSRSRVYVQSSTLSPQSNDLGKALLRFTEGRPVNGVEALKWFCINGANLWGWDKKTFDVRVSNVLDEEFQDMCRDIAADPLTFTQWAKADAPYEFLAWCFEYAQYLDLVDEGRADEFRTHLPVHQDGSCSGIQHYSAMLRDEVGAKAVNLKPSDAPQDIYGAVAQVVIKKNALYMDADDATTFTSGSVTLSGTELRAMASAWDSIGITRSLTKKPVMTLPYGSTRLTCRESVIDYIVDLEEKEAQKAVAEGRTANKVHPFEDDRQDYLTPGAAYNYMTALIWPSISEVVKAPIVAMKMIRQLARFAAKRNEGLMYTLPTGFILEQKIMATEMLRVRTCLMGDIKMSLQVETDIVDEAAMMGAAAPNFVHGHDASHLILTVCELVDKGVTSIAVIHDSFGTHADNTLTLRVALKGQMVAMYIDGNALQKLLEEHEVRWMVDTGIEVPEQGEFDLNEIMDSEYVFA
The assay is described as above. In kind it is biochemical. The note with it: 20 mM reducing reagent. As for the experimental part:
as §3, §4

Another assay deals with T4, T7 RNA polymerase (Escherichia phage T7, UniProt P00573).
T4 construct: purchased Ambion, Inc
T4 sequence (P00573 whole entry): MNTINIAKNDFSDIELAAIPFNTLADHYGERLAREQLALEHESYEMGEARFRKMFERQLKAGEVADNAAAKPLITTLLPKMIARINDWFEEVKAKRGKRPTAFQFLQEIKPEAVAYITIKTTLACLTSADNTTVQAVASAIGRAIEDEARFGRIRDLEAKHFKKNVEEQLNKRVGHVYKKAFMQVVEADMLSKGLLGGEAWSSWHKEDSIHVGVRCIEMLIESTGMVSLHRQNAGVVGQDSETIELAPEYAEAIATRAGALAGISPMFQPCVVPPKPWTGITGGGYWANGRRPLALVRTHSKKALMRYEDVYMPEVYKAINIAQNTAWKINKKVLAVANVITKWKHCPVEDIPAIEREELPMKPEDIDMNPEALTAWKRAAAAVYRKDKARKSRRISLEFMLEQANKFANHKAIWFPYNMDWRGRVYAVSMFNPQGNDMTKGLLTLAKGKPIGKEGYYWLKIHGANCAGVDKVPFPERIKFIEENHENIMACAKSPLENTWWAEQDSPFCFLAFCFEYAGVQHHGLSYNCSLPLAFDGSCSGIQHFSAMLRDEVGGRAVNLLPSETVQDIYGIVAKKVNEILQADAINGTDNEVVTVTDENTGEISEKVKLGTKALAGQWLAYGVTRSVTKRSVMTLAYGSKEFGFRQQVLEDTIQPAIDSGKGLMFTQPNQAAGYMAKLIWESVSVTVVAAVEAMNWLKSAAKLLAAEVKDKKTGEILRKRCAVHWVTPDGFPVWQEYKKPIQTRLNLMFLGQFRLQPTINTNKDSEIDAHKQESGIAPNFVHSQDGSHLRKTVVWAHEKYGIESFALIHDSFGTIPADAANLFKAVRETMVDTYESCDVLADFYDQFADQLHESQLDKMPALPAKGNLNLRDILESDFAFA
The assay is described as above. In kind it is biochemical. To be noted: 20 mM reducing reagent. As for the experimental part: as §3, §4

Setting [4] is: reducing reagent 20 mM, RNase mixture 200 ng/ml, 60° C. for 20 minutes.

Structures are written as SMILES.

For the compound `O[C@H](CS)[C@@H](O)CS` [DTE, dithioerythritol], the RNase mixture inactivation result in assay [1] (setting [4]) is “inactivate RNase activity completely”. Moreover, the “inhibition of reverse transcription by MMLV reverse transcriptase” value in assay [2] is reported as “not inhibited”. The “inhibition of reverse transcription by AMV reverse transcriptase” value in assay [3] was “not inhibited”. Besides, the “DNase I activity after reducing/heat treatment” value at DNase I is on record as “not affected”. Also, at T3 RNA polymerase, the “inhibition of T3 RNA polymerase transcription” value is “None of the three polymerases were inhibited”. In addition, on SP6 RNA polymerase, the “inhibition of SP6 RNA polymerase transcription” value is on record as “None of the three polymerases were inhibited”. Further, at T7 RNA polymerase, the “inhibition of T7 RNA polymerase transcription” value was “None of the three polymerases were inhibited”.

For `N[C@@H](CS)C(=O)O` [cysteine], the RNase mixture inactivation result was “inactivated” in assay [1] (10 mM cysteine, RNase mixture 200 ng/ml, 1 mM sodium citrate (pH 6.4), 68° C. for 20 minutes); “inactivated” in assay [1] (20 mM cysteine, RNase mixture 200 ng/ml, 1 mM sodium citrate (pH 6.4), 68° C. for 20 minutes); “inactivated” in assay [1] (40 mM cysteine, RNase mixture 200 ng/ml, 1 mM sodium citrate (pH 6.4), 68° C. for 20 minutes); “inactivated” in assay [1] (60 mM cysteine, RNase mixture 200 ng/ml, 1 mM sodium citrate (pH 6.4), 68° C. for 20 minutes).

For `OC1CSSCC1O` (stereo not shown) [oxidized DTT], the RNase mixture inactivation entry in assay [1] (heated DTT diluted to 20 mM, RNase mixture 200 ng/ml in water, 60° C. for 20 minutes) is listed as “did not inactivate”.

Consider `OCCS` [β-mercaptoethanol], for which the RNase mixture inactivation result in assay [1] (setting [4]) is reported as “inactivate RNase activity completely”. Moreover, the “inhibition of reverse transcription by MMLV reverse transcriptase” value in assay [2] is “not inhibited”. In addition, the “inhibition of reverse transcription by AMV reverse transcriptase” value in assay [3] was “not inhibited”. Also, the “DNase I activity after reducing/heat treatment” value on DNase I is “not affected”. Further, the “inhibition of T3 RNA polymerase transcription” value against T3 RNA polymerase is reported as “None of the three polymerases were inhibited”. For the same compound, the “inhibition of SP6 RNA polymerase transcription” value against SP6 RNA polymerase was “None of the three polymerases were inhibited”. Besides, at T7 RNA polymerase, the “inhibition of T7 RNA polymerase transcription” value is on record as “None of the three polymerases were inhibited”.

The record behind these values is patent US6825340B2, “Methods and reagents for inactivating ribonucleases” (Ambion, Inc., priority 1998, dated 2004).
